# Test results: PubChem BioAssay (NCI)
#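 Method: 48-hour compound exposure of cells in 96-well plates, five concentrations, linear interpolation of endpoints. GI50: concentration for 50% inhibition of growth. TGI: total growth inhibition.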
# Legend:
# Experiment in all cases: NCI-60 cell line screen, 48 h
# [1] = test system: LOX IMVI melanoma
# [2] = test system: HOP-62 NSCLC
# [3] = test system: NCI/ADR-RES ovarian
# [4] = test system: OVCAR-4 ovarian
# [5] = test system: 786-0 renal
# [6] = test system: K-562 leukemia
# [7] = test system: SF-295 CNS
# [8] = test system: RXF 393 renal
# [9] = test system: SF-539 CNS
# [10] = test system: HOP-92 NSCLC
SMILES,GI50 [1] [µM],TGI [1] [µM],GI50 [2] [µM],TGI [2] [µM],GI50 [3] [µM],TGI [3] [µM],GI50 [4] [µM],TGI [4] [µM],GI50 [5] [µM],TGI [5] [µM],GI50 [6] [µM],TGI [6] [µM],GI50 [7] [µM],TGI [7] [µM],GI50 [8] [µM],TGI [8] [µM],GI50 [9] [µM],TGI [9] [µM],GI50 [10] [µM],TGI [10] [µM]
COc1cc(Cl)cc(-c2nn(-c3cccc(NC(=O)Nc4cccc(C(F)(F)F)c4)c3)cc2-c2ccncc2)c1,1.81,7.04,2.81,13.1,1.65,7.81,2.54,38.8,1.94,6.78,0.824,14.4,0.783,4.62,1.4,4.35,1.9,4.82,,
O=C1CC(c2c(-c3ccccc3)[nH]c3ccccc23)C(=O)N1c1ccccc1 (stereo not given),,,,94,,,,> 100,,> 100,,> 100,,> 100,,> 100,,> 100,,
COc1ccc(C(C)c2cc(OC)c(OC)c(OC)c2)cc1 (stereo not given),0.537,> 50,0.259,> 50,0.0574,> 50,2.97,> 50,0.213,> 50,0.0261,> 50,0.0752,> 50,0.126,> 50,,,3.6,> 50
Cc1cc(N(CCC#N)CCC#N)ccc1N=Nc1cc(Cl)ccc1Cl,,14.2,,35.3,,,,10.3,,28.9,,11.4,,34.9,,23,,19.4,,
CCOC(=O)C1C=C2O[C@@H]3OC4(CCCCC4)O[C@@H]3C2C2C(=O)CCC(=O)[C@@]12C(=O)OC (stereo not given in full),,> 100,,> 100,,,,> 100,,> 100,,> 100,,> 100,,,,,,> 100
C[C@]12CC[C@@H]3c4ccc(O)cc4CC[C@H]3[C@@H]1CC[C@@H]2NS(=O)(=O)c1ccc(Br)cc1,,,2.77,6.14,2.81,8.79,3.01,12.4,3.07,8.86,3.08,> 100,1.75,3.29,2.43,4.99,2.04,3.92,1.76,4.93
O=C1/C(=C/c2ccc3c(c2)OCCO3)CCC/C1=C\c1ccc2c(c1)OCCO2,,> 100,,92.1,,,,61,,> 100,,,,57.3,,53.5,,38.6,,> 100
COC(=O)c1cccc2c3ccccc3c3ccccc3c12,,81,,> 100,,,,> 100,,> 100,,79.3,,65.9,,71.3,,,,
CC1(C)CCCC2(C)C3C(O)CC2(C)C(O)C31 (stereo not given),,> 100,,> 100,,,,> 100,,0.156,,> 100,,> 100,,> 100,,> 100,,
Cc1cccc(C)c1NC(=O)CCC/C(CC(=O)c1ccc(F)cc1)=N\NC(=O)C(=O)NN,,> 100,,,,,,> 100,,> 100,,> 100,,> 100,,> 100,,> 100,,
C1OC1CN1CCN(CC2CO2)CC1 (stereo not given),,> 100,,69.7,,,,> 100,,> 100,,> 100,,> 100,,> 100,,> 100,,> 100
Cn1c(=O)nc2n(-c3ccc(Cl)cc3)c(-c3ccccc3)c(-c3ccccc3)nc-2c1=O,,,,66.7,,,,> 100,,> 100,,> 100,,> 100,,,,71.5,,84.5
CC1=CC(C)(c2c[nH]c3ccccc23)CC(C)(C)c2c1[nH]c1ccccc21 (stereo not given),,31.5,,79.7,,,,27.7,,27.1,,53.9,,32.6,,26.6,,> 100,,
COc1ccc(/C(C)=N/NC(=O)CSc2nc3ccccc3c(=O)n2CCc2ccc(S(N)(=O)=O)cc2)cc1,,,,,11.7,> 100,1.77,3.52,1.79,3.44,2.87,> 100,1.8,3.86,1.72,3.29,1.69,3.16,1.89,4
CC(=O)Oc1ccc2c(c1)[C@@]1(C)CCCC(C)(C)[C@@H]1CC2,17.7,32.1,15.9,30.2,26,49.9,,,18.1,32.8,40,> 100,19.1,56.6,41.2,86.3,,,21.7,41.9
N#Cc1c(-c2ccccc2)cc(-c2ccc(N)cc2)[nH]c1=O,,> 100,,> 100,,,,> 100,,> 100,,> 100,,> 100,,> 100,,> 100,,> 100
NCCCCCNc1noc(Cc2c[nH]c3cc(Br)ccc23)n1,2.81,17.6,3.79,29.3,,,6.7,52.4,5.24,27.1,0.469,14.7,2.53,25.3,1.54,5.17,2.15,5.84,4.62,33.6
CCc1cccc(C(C)C)c1NC(=O)CCl,,> 100,,,,,,,,> 100,,> 100,,> 100,,,,> 100,,> 100
CC(C)(C)OC(=O)NCCCCn1c2c(c3ccccc3c1=O)C(=O)c1ccccc1-2,12.5,36.7,28.7,> 100,15.7,45.7,47.8,> 100,21.7,55.6,24.8,> 100,16.5,56.1,23.1,> 100,25.9,62.8,,
CCCCC(C)/C=C/C(=O)C1=C(O)/C(=C/C(=O)O)OC1=O (stereo not given),,> 100,,> 100,,,,> 100,,> 100,,> 100,,> 100,,,,> 100,,
